This is an account of results in patent publication US20250115600A1, “COVALENT MODIFIERS OF AKT1 AND USES THEREOF” (Terremoto Biosciences, Inc., priority 2022, published 2025).

Assay [1] addresses AKT1 E17K mutant protein (Homo sapiens (Human), UniProt P31749, E17K). In words: Intact mass spectrometry, covalent complex formation and ARQ-092 competition. Type of assay: binding. The conditions noted are these: protein 1 μM, compound 1.5 μM, 2 hrs at 37° C., NaBH4 reduction. The procedure: (§1) AKT1 WT or AKT1 E17K (1 μM) was treated with a compound from Table 1 (1.5 μM) for 2 hrs at 37° C., with and without ARQ092 (50 μM) competitor as a specificity control. Reversible imines were captured by reductive amination with 5 mM NaBH4 for 5 min. Reduction reactions were quenched by diluting the sample in equal volume acetonitrile+1% TFA, then analyzed by LCMS.
(§2) FIGS. 1 to 25 provide intact mass spectra for AKT1 WT protein and AKT1 E17K mutant protein after incubation with compounds of the present disclosure and subsequent borohydride reduction. […] Further, FIGS. 1 to 10, 12, and 14 to 25 each provide intact mass spectra following the incubation of an AKT1 protein with a compound of the present disclosure both in the absence of a competitor molecule (i.e., ARQ-092, a molecule known to bind to and inhibit the function of AKT1); and in the presence of a significant stoichiometric excess of a competitor molecule.

Assay [2] has as its target T1, AKT1 WT (Homo sapiens (Human), UniProt P31749). The assay is described as above. Type of assay: binding. The settings on record: protein 1 μM, compound 1.5 μM, 2 hrs at 37° C., NaBH4 reduction. The protocol:
as §1, §2
Target sequence in this assay (P31749 2-480): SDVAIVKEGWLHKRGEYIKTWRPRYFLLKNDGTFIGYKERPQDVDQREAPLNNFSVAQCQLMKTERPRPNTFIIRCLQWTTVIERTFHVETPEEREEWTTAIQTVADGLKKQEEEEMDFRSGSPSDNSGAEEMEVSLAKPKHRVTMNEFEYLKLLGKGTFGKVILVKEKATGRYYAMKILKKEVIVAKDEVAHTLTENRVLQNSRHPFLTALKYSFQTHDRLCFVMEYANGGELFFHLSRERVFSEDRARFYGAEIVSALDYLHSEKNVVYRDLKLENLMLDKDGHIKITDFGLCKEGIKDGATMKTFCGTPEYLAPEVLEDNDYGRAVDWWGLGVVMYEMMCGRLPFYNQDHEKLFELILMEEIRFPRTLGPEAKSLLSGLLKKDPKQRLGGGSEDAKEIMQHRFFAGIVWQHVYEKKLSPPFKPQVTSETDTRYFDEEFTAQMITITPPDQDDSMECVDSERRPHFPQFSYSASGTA

Assay [3] concerns the target T1, AKT1 WT. In words: Live cell target engagement (NanoBRET) in HEK293 cells. Type of assay: cell-based. The conditions noted are these: HEK293, 2 hours at 37° C. In general terms: Bioluminescence resonance energy transfer reports proximity on the nanometre scale.
Target sequence in this assay (P31749 whole entry): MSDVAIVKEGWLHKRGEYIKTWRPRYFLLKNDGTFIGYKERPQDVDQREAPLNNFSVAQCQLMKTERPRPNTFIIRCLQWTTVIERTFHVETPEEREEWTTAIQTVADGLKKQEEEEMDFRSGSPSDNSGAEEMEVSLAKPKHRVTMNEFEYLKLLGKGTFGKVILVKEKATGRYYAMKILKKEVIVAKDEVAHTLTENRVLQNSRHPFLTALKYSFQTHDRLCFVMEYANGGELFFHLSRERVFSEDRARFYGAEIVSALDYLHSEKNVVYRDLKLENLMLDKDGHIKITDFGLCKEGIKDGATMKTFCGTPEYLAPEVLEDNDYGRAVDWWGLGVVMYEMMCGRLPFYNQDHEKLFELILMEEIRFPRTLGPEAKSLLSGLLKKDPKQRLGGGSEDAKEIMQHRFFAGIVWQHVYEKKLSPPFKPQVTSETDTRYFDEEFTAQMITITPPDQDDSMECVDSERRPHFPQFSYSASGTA
In assay [4] the target is AKT2 (Homo sapiens (Human), UniProt P31751). The description is as above. The class given is cell-based. The settings on record: HEK293, 2 hours at 37° C.
Sequence of AKT2 (P31751 whole entry): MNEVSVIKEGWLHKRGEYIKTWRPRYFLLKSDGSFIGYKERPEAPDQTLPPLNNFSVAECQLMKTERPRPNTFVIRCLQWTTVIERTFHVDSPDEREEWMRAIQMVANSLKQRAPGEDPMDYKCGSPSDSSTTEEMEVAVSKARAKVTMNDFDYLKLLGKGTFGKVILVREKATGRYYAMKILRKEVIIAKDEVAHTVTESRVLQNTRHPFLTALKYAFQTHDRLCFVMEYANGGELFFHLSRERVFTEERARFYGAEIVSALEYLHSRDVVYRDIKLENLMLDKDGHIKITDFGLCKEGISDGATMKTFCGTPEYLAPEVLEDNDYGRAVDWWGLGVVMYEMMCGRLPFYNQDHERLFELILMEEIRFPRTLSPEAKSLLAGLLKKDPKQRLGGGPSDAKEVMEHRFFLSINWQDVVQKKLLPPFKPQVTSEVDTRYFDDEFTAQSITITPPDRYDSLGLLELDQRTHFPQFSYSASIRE
The target in assay [5] is AKT1 E17K (Homo sapiens (Human), UniProt P31749, E17K). Described as above. The class given is cell-based. The conditions noted are these: for IC50: HEK293, 2 hours at 37° C.
Sequence of AKT1 E17K (P31749 whole entry E17K): as the sequence (P31749 whole entry) above, with E17K counted along it

Sequence of AKT1 E17K mutant protein (P31749 2-480 E17K): as the sequence (P31749 2-480) above, with E16K counted along it

In general, IC50 refers to the concentration needed to halve the response being measured. A lower IC50 goes with inhibition by little substance. As to `Nc1ncccc1-c1nc2ccc(N3CCOCC3)nc2n1-c1ccc(CNC(=O)Cc2ccc(C=O)c(O)c2)cc1` [Compound 49, N-({4-[2-(2-aminopyridin-3-yl)-5-(morpholin-4-yl)imidazo[4,5-b]pyridin-3-yl]phenyl}methyl)-2-(4-formyl-3-hydroxyphenyl)acetamide], the “covalent complex formation with AKT1 E17K mutant protein” value in assay [1] (absence of competitor) is “significant presence of a covalent complex”. In addition, in assay [1] (with ARQ092 (50 μM)), the “covalent complex formation with AKT1 E17K mutant protein in presence of competitor” value is “Essentially little to no covalent complex formation”. Further, the “covalent complex formation with AKT1 WT protein” value in assay [2] (absence of competitor) is on record as “significant presence of covalent complex”. Moreover, the “covalent complex formation with AKT1 WT protein in presence of competitor” value in assay [2] (with ARQ092 (50 μM)) is given as “Essentially no covalent complex formation”. Moreover, the 50% inhibitory concentration (IC50) in assay [3] is below 100 nM; in assay [4], above 500 nM; in assay [5] it was below 100 nM. Besides, in assay [5], the “AKT1 E17K IC50: Selectivity vs AKT1 WT” value was 20. In assay [5], the “AKT1 E17K IC50: Selectivity vs AKT2” value is on record as 1500.

With `Nc1ncccc1-c1nc2ccc(C(F)F)nc2n1-c1ccc(CNC(=O)Cc2ccc(C=O)c(O)c2)cc1` [Example 7, N-({4-[2-(2-aminopyridin-3-yl)-5-(difluoromethyl)imidazo[4,5-b]pyridin-3-yl]phenyl}methyl)-2-(4-formyl-3-hydroxyphenyl)acetamide], in assay [3], the IC50 lay in the range of 100 to 500 nM. The compound also gave an IC50 in assay [4] above 500 nM. Besides, in assay [5], the “AKT1 E17K IC50: Selectivity vs AKT1 WT” value is listed as 5.8, the “AKT1 E17K IC50: Selectivity vs AKT2” value was 110 and the half-maximal inhibitory concentration (IC50) is below 100 nM.

With `Nc1ncccc1-c1nc2ccc(N3CC4CCC(C3)O4)nc2n1-c1ccc(CNC(=O)Cc2ccc(C=O)c(O)c2)cc1` [Example 8, N-({4-[2-(2-aminopyridin-3-yl)-5-{8-oxa-3-azabicyclo[3.2.1]octan-3-yl}imidazo[4,5-b]pyridin-3-yl]phenyl}methyl)-2-(4-formyl-3-hydroxyphenyl)acetamide], the IC50 is 100 to 500 nM in assay [3], above 500 nM in assay [4] and below 100 nM in assay [5]. In assay [5], the “AKT1 E17K IC50: Selectivity vs AKT1 WT” value turned out to be 12. For the same compound, the “AKT1 E17K IC50: Selectivity vs AKT2” value in assay [5] turned out to be 120.

In the case of `Nc1ncccc1-c1nc2ccc(OC3CC3)nc2n1-c1ccc(CNC(=O)Cc2ccc(C=O)c(O)c2)cc1` [Example 10, N-({4-[2-(2-aminopyridin-3-yl)-5-cyclopropoxyimidazo[4,5-b]pyridin-3-yl]phenyl}methyl)-2-(4-formyl-3-hydroxyphenyl)acetamide], the half-inhibitory concentration (IC50) in assay [3] is below 100 nM; in assay [4], above 500 nM; in assay [5], below 100 nM. Besides, the “AKT1 E17K IC50: Selectivity vs AKT1 WT” value in assay [5] is given as 3.9. Further, the “AKT1 E17K IC50: Selectivity vs AKT2” value in assay [5] amounted to 160.

As to `Nc1ncccc1-c1nc2ccc(-c3ccccc3)nc2n1-c1ccc(CC(=O)NC2(c3ccc(C=O)c(O)c3)CC2)cc1` [Example 11, 2-{4-[2-(2-aminopyridin-3-yl)-5-phenylimidazo[4,5-b]pyridin-3-yl]phenyl}-N-[1-(4-formyl-3-hydroxyphenyl)cyclopropyl]acetamide], the IC50 in assay [3] was below 100 nM. The same compound had an IC50 in assay [4] of 100 to 500 nM. In assay [5], the “AKT1 E17K IC50: Selectivity vs AKT1 WT” value is on record as 3.1, the “AKT1 E17K IC50: Selectivity vs AKT2” value is on record as 28 and the IC50 is below 100 nM.

`Nc1ncccc1-c1nc2ccc(-c3cccc(N4CCOCC4)c3)nc2n1-c1ccc(CNC(=O)c2cc(F)c(O)c(C=O)c2)cc1` [Example 12, N-(4-(2-(2-aminopyridin-3-yl)-5-(3-morpholinophenyl)-3H-imidazo[4,5-b]pyridin-3-yl)benzyl)-3-fluoro-5-formyl-4-hydroxybenzamide] had an IC50 in assay [3] below 100 nM. Further, the IC50 in assay [4] is 100 to 500 nM. In addition, in assay [5], the “AKT1 E17K IC50: Selectivity vs AKT1 WT” value turned out to be 1.5, the “AKT1 E17K IC50: Selectivity vs AKT2” value came out at 5.2 and the IC50 is below 100 nM.

`Nc1ncccc1-c1nc2ccc(-c3cccc(N4CCOCC4)c3)nc2n1-c1ccc(CNC(=O)Cc2ccc(C=O)c(O)c2Cl)cc1` [Example 13, N-({4-[2-(2-aminopyridin-3-yl)-5-[3-(morpholin-4-yl)phenyl]imidazo[4,5-b]pyridin-3-yl]phenyl}methyl)-2-(2-chloro-4-formyl-3-hydroxyphenyl)acetamide] returned an IC50 in assay [3] below 100 nM. For the same compound, in assay [4], the IC50 was below 100 nM. Also, in assay [5], the “AKT1 E17K IC50: Selectivity vs AKT1 WT” value is given as 1.2, the “AKT1 E17K IC50: Selectivity vs AKT2” value was 3 and the IC50 is below 100 nM.

In the case of `Cc1c(CC(=O)NCc2ccc(-n3c(-c4cccnc4N)nc4ccc(-c5ccccc5)nc43)cc2)ccc(C=O)c1O` [Example 14, N-({4-[2-(2-aminopyridin-3-yl)-5-phenylimidazo[4,5-b]pyridin-3-yl]phenyl}methyl)-2-(4-formyl-3-hydroxy-2-methylphenyl)acetamide], the results for the IC50 in assay [3], in assay [4] and in assay [5] were below 100 nM, 100 to 500 nM and below 100 nM, respectively. In addition, in assay [5], the “AKT1 E17K IC50: Selectivity vs AKT1 WT” value is reported as 3.3. The “AKT1 E17K IC50: Selectivity vs AKT2” value in assay [5] is listed as 36.

Consider `Nc1ncccc1-c1nc2ccc(-c3ccccc3)nc2n1-c1ccc(CNC(=O)c2ccc(O)c(C=O)c2F)cc1` [Example 15, N-(4-(2-(2-aminopyridin-3-yl)-5-phenyl-3H-imidazo[4,5-b]pyridin-3-yl)benzyl)-2-fluoro-3-formyl-4-hydroxybenzamide], for which, in assay [3], the IC50 was in the range of 100 to 500 nM. The compound further showed an IC50 in assay [4] above 500 nM. In assay [5], the “AKT1 E17K IC50: Selectivity vs AKT1 WT” value is given as 2, the “AKT1 E17K IC50: Selectivity vs AKT2” value amounted to 13 and the IC50 is below 100 nM.

Compound `Nc1ncccc1-c1nc2ccc(C3CC3)nc2n1-c1ccc(CNCCc2ccc(C=O)c(O)c2)cc1` [Example 16, 4-{2-[({4-[2-(2-aminopyridin-3-yl)-5-cyclopropylimidazo[4,5-b]pyridin-3-yl]phenyl}methyl)amino]ethyl}-2-hydroxybenzaldehyde] displayed an IC50 in assay [3] of 100 to 500 nM. In assay [4], this compound displayed an IC50 above 500 nM. For the same compound, in assay [5], the “AKT1 E17K IC50: Selectivity vs AKT1 WT” value is 2.4, the “AKT1 E17K IC50: Selectivity vs AKT2” value is listed as 41 and the IC50 is below 100 nM.

The compound `CC(C)(O)c1ccc2nc(-c3cccnc3N)n(-c3ccc(CNC(=O)Cc4ccc(C=O)c(O)c4)cc3)c2n1` [Example 17, N-({4-[2-(2-aminopyridin-3-yl)-5-(2-hydroxypropan-2-yl)imidazo[4,5-b]pyridin-3-yl]phenyl}methyl)-2-(4-formyl-3-hydroxyphenyl)acetamide] yielded an IC50 in assay [3] above 500 nM. In addition, the IC50 in assay [4] was above 500 nM. For the same compound, in assay [5], the “AKT1 E17K IC50: Selectivity vs AKT1 WT” value stood at 10, the “AKT1 E17K IC50: Selectivity vs AKT2” value is above 110 and the IC50 was below 100 nM.

For `CC1(c2ccc3nc(-c4cccnc4N)n(-c4ccc(CNC(=O)Cc5ccc(C=O)c(O)c5)cc4)c3n2)CC1` [Example 18, N-({4-[2-(2-aminopyridin-3-yl)-5-(1-methylcyclopropyl)imidazo[4,5-b]pyridin 3-yl]phenyl}methyl)-2-(4-formyl-3-hydroxyphenyl)acetamide], the IC50 in assay [3] lay within 100 to 500 nM. This compound came in with an IC50 in assay [4] above 500 nM. For the same compound, in assay [5], the “AKT1 E17K IC50: Selectivity vs AKT1 WT” value came to 6.1, the “AKT1 E17K IC50: Selectivity vs AKT2” value is 150 and the IC50 is below 100 nM.

For `Nc1ncccc1-c1nc2ccc(-c3cccc(N4CCOCC4)c3)nc2n1-c1ccc(CCNCc2ccc(C=O)c(O)c2)cc1` [Example 19, 4-(((4-(2-(2-aminopyridin-3-yl)-5-(3-morpholinophenyl)-3H-imidazo[4,5-b]pyridin-3-yl)phenethyl)amino)methyl)-2-hydroxybenzaldehyde], the IC50 in assay [3], in assay [4] and in assay [5] was below 100 nM each time. For the same compound, the “AKT1 E17K IC50: Selectivity vs AKT1 WT” value in assay [5] was 1.7. Moreover, the “AKT1 E17K IC50: Selectivity vs AKT2” value in assay [5] came out at 4.9.

In the case of `Nc1ncccc1-c1nc2ccc(C3CC3)nc2n1-c1ccc(CNC(=O)Cc2ccc(C=O)c(O)c2Cl)cc1` [Example 22, N-({4-[2-(2-aminopyridin-3-yl)-5-cyclopropylimidazo[4,5-b]pyridin-3-yl]phenyl}methyl)-2-(2-chloro-4-formyl-3-hydroxyphenyl)acetamide], in assay [3], the IC50 is below 100 nM. For the same compound, the half-inhibitory concentration (IC50) in assay [4] is above 500 nM. Also, in assay [5], the “AKT1 E17K IC50: Selectivity vs AKT1 WT” value is on record as 3.1, the “AKT1 E17K IC50: Selectivity vs AKT2” value was found to be 190 and the IC50 is below 100 nM.

`CC(C)c1ccc2nc(-c3cccnc3N)n(-c3ccc(CNC(=O)Cc4ccc(C=O)c(O)c4)cc3)c2n1` [Example 23, N-({4-[2-(2-aminopyridin-3-yl)-5-isopropylimidazo[4,5-b]pyridin-3-yl]phenyl}methyl)-2-(4-formyl-3-hydroxyphenyl)acetamide] came in with an IC50 in assay [3] below 100 nM. This compound came in with an IC50 in assay [4] above 500 nM. In assay [5], the “AKT1 E17K IC50: Selectivity vs AKT1 WT” value was 4.8, the “AKT1 E17K IC50: Selectivity vs AKT2” value was found to be 270 and the IC50 is below 100 nM.
